Test results from patent US20070032418A1, “Small-molecule inhibitors of angiogenin and rnases and in vivo and in vitro methods of using same” (Ambion, Inc, priority 2003, published 2007).
Where two headings read alike, the source gives them in different places.

Biological target: angiogenin (ANG) (Homo sapiens, UniProt P03950)
Assay: Inhibition of ANG ribonucleolytic activity, HPLC assay of oligonucleotide cleavage
Format: biochemical
Method: Reaction mixtures with and without test compounds were chromatographed on a Mono Q anion-exchange column with an NaCl gradient in 10 mM Tris, pH 8. […] This information was used to calculate kcat/Km values, which were then fitted to the equation (kcat/Km)i=(kcat/Km)0/[…], where (kcat/Km)i and (kcat/Km)0 are defined as the values in the presence and absence of inhibitor, respectively, and [I] is defined as the inhibitor concentration. At least four concentrations (in a range of about 10 μM-above 100 μM) were used in the final hit confirmation in order to distinguish all true hits.
Chemical structures of selected compounds are shown in these Tables and in FIGS. 4 and 5.

[1] = inhibition of ANG-catalyzed cleavage of an RNA oligonucleotide, 20 mM Hepes, 100 mM NaCl, 37° C.

Chain of angiogenin (ANG) (P03950 25-147): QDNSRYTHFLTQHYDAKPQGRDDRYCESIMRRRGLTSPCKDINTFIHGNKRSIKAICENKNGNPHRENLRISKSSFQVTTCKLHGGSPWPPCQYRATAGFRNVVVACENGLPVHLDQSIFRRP

Compound | Ki (read-out: KI) [µM] | also measured
O=S(=O)(O)c1cc(O)c2c(O)c(N=Nc3c(O)c(S(=O)(=O)O)cc4cc(S(=O)(=O)O)cc(O)c34)c(S(=O)(=O)O)cc2c1 |  | Ki (inhibition of ANG-catalyzed cleavage of an RNA oligonucleotide, 20 mM Hepes, 100 mM NaCl, 37° C., read-out: KI): > 1000 µM
O=S(=O)(O)c1ccc2c(/N=N/c3ccc(S(=O)(=O)O)c4ccccc34)c(O)c(S(=O)(=O)O)cc2c1 [Amaranth] | 60 | 
O=C(c1ccc(C(=O)O)c(NC(=O)c2cccc3ccccc23)c1)c1ccc(C(=O)O)c(NC(=O)c2cccc3ccccc23)c1 [CB-181431, 4,4′-dicarboxy-3,3′-bis(naphthylamido)-diphenylmethanone] |  | Ki (20 mM Hepes, 100 mM NaCl, pH 7.0, 37° C., read-out: Ki for inhibition of the ribonucleolytic activity of angiogenin): 41 µM
O=S(=O)(O)c1cc(O)c2ccc(Nc3ccc4c(O)cc(S(=O)(=O)O)cc4c3)cc2c1 [NCI-1698] | 172 | 
Nc1ccc(C(=O)Nc2ccc(C(=O)Nc3ccc4c(O)cc(S(=O)(=O)O)cc4c3)cc2)cc1 [NCI-1741] | ~600 | 
Nc1cccc(C(=O)Nc2ccc3c(O)cc(S(=O)(=O)O)cc3c2)c1 [NCI-1743] |  | KI [1]: in- active at 75 uM
Cc1ccc(/N=N/c2c(O)ccc3cc(S(=O)(=O)O)ccc23)cc1 [NCI-7814] | 175 | 
Cc1cc(-c2ccc(/N=N/c3c(N)c(S(=O)(=O)O)cc4cc(S(=O)(=O)O)ccc34)c(C)c2)ccc1/N=N/c1cc(S(=O)(=O)O)c2ccccc2c1N [NCI-7815] | 14 | 
O=S(=O)(O)c1cc(/N=N/c2c(O)ccc3ccccc23)c2c(O)c(/N=N/c3ccc(S(=O)(=O)O)c4ccccc34)c(S(=O)(=O)O)cc2c1 [NCI-8674] | 158 | 
O=[N+]([O-])c1ccc(/N=N/c2c(S(=O)(=O)O)cc3cc(S(=O)(=O)O)ccc3c2O)c([N+](=O)[O-])c1 [NCI-9360] | 307 | 
COc1cc(-c2ccc(/N=N/c3ccc4c(S(=O)(=O)O)cc(S(=O)(=O)O)c(N)c4c3O)c(OC)c2)ccc1/N=N/c1ccc2c(S(=O)(=O)O)cc(S(=O)(=O)O)c(N)c2c1O [NCI-9617, Chicago Sky Blue 6B] | 5 | 
O=C(O)c1ccccc1/N=N/c1c(O)c(S(=O)(=O)O)cc2cc(S(=O)(=O)O)ccc12 [NCI-12455] | 239 | 
O=C(Nc1ccc2cc(S(=O)(=O)O)cc(S(=O)(=O)O)c2c1)Nc1ccc2cc(S(=O)(=O)O)cc(S(=O)(=O)O)c2c1 [NCI-12857] | 336 | 
Nc1c(OCC(=O)O)ccc2cc(S(=O)(=O)O)ccc12 [NCI-16163] |  | KI [1]: in- active at 75 uM
O=C(Nc1cc(S(=O)(=O)O)cc2cc(S(=O)(=O)O)cc(O)c12)c1ccccc1 [NCI-16169] |  | KI [1]: in- active at 75 uM
Cc1cc(-c2ccc(/N=N/c3c(N)c(S(=O)(=O)O)cc4cc(S(=O)(=O)O)ccc34)c(C)c2)ccc1/N=N/c1c(N)ccc2cc(S(=O)(=O)O)ccc12 [NCI-16224, direct red 34] | 5.5 | 
COc1ccc(/C=N/c2c(O)ccc3ccccc23)cc1OC [NCI-17061] | 900 | 
Nc1ccc(/N=N/c2ccc(/C=C/c3ccc(/N=N/c4ccc(N)c5ccc(S(=O)(=O)O)cc45)cc3S(=O)(=O)O)c(S(=O)(=O)O)c2)c2cc(S(=O)(=O)O)ccc12 [NCI-34933] | 172 | 
O=C(Nc1ccc2cc(S(=O)(=O)O)ccc2c1)c1ccc([N+](=O)[O-])cc1 [NCI-37169] | 950 | 

Compound | Ki (read-out: KI) [µM] | also measured
Nc1ccc(C(=O)Nc2cc(S(=O)(=O)O)cc3cccc(O)c23)cc1 [NCI-37176] | 104 | 
O=C(O)c1cc(O)c(O)c(OC(=O)c2cc(O)c(O)c(O)c2CNc2ccc3cc(S(=O)(=O)O)cc(S(=O)(=O)O)c3c2)c1 [NCI-42067] | 245 | 
O=[N+]([O-])c1ccc(/N=N/c2c(O)ccc3cc(S(=O)(=O)O)ccc23)cc1 [NCI-45538] | 305 | 
O=[N+]([O-])c1ccc(/N=N/c2c(O)c(S(=O)(=O)O)cc3cc(S(=O)(=O)O)ccc23)cc1 [NCI-45540] | 307 | 
O=[N+]([O-])c1cccc(/N=N/c2c(O)c(S(=O)(=O)O)cc3cc(S(=O)(=O)O)ccc23)c1 [NCI-45541] | 244 | 
O=[N+]([O-])c1ccc(/N=N/c2c(S(=O)(=O)O)cc3cc(S(=O)(=O)O)cc(O)c3c2O)cc1 [NCI-45542] | 426 | 
Nc1cc(S(=O)(=O)O)cc2cc(S(=O)(=O)O)c(/N=N/c3ccc([N+](=O)[O-])cc3)c(O)c12 [NCI-45550] | 183 | 
Cc1ccc(/N=N/c2c(N)ccc3cc(S(=O)(=O)O)ccc23)c(C)c1 [NCI-45569] | 194 | 
CC(=O)Nc1ccc(/N=N/c2ccc(N)c3cc(S(=O)(=O)O)ccc23)cc1 [NCI-45571] | 300 | 
O=C(Nc1ccc2cc(S(=O)(=O)O)ccc2c1)c1ccc(/N=N/c2cc(S(=O)(=O)O)c3ccccc3c2O)cc1 [NCI-45608] | 75 | 
O=C(O)c1cc(/N=N/c2ccc(/N=N/c3c(Nc4ccccc4)ccc4cc(S(=O)(=O)O)cc(O)c34)cc2)ccc1O [NCI-45612] | 158 | 
Nc1ccc(/N=N/c2ccc(-c3ccc(/N=N/c4ccc(N)c5cc(S(=O)(=O)O)ccc45)cc3)cc2)c2ccc(S(=O)(=O)O)cc12 [NCI-45618] | 15 | 
O=C(O)c1c(O)ccc(/N=N/c2ccc(/N=N/c3ccc4c(S(=O)(=O)O)cccc4c3O)c3ccccc23)c1O [NCI-47735] | 85 | 
O=[N+]([O-])c1ccc(/N=N/c2c(O)c(/N=N/c3cc([N+](=O)[O-])cc([N+](=O)[O-])c3O)cc(/N=N/c3cc(S(=O)(=O)O)cc4cc(S(=O)(=O)O)cc(O)c34)c2O)cc1 [NCI-47740] | 15 | 
COc1cc(/N=N/c2cc(S(=O)(=O)O)cc3cc(S(=O)(=O)O)cc(O)c23)c(C)cc1/N=N/c1c(S(=O)(=O)O)cc2cc(Nc3ccccc3)ccc2c1O [NCI-47755] | 84 | 
O=S(=O)(O)c1ccc(/N=N/c2ccc(/N=N/c3c(O)ccc4cc(S(=O)(=O)O)ccc34)cc2)cc1 [NCI-58047] | 36 | 
O=S(=O)(O)c1ccc(/N=N/c2ccc(/N=N/c3c(O)ccc4cc(S(=O)(=O)O)cc(S(=O)(=O)O)c34)cc2)cc1 [NCI-65546] | 129 | 
COc1cc(/N=N/c2ccc(S(=O)(=O)O)cc2)ccc1/N=N/c1c(O)ccc2cc(S(=O)(=O)O)ccc12 [NCI-65553] | 29 | 
Cc1cc(-c2ccc(/N=N/c3c(O)ccc4cc(S(=O)(=O)O)cc(S(=O)(=O)O)c34)c(C)c2)ccc1/N=N/c1c(O)c(S(=O)(=O)O)cc2cc(S(=O)(=O)O)ccc12 [NCI-65568] | 23 | 

Compound | Ki (read-out: KI) [µM] | also measured
Cc1cc(/N=N/c2ccc(NC(=O)c3ccccc3)c3ccc(S(=O)(=O)O)cc23)ccc1/N=N/c1ccc2c(O)cc(S(=O)(=O)O)cc2c1 [NCI-65844] | 108 | 
Cc1cc(NC(=O)c2ccc(/N=N/c3c(O)c(S(=O)(=O)O)cc4cc(S(=O)(=O)O)ccc34)cc2)ccc1/N=N/c1ccc2cc(S(=O)(=O)O)cc(S(=O)(=O)O)c2c1 [NCI-65845] | 3 | 
Cc1cc(/N=N/c2ccc(/N=N/c3c(O)c(S(=O)(=O)O)cc4cc(S(=O)(=O)O)ccc34)cc2C)ccc1/N=N/c1ccc2cc(S(=O)(=O)O)cc(S(=O)(=O)O)c2c1 [NCI-65847] | 38 | 
Nc1ccc2cc(S(=O)(=O)O)cc(O)c2c1/N=N/c1ccc(-c2ccc(/N=N/c3c(S(=O)(=O)O)cc4cc(S(=O)(=O)O)c(/N=N/c5ccc([N+](=O)[O-])cc5)c(N)c4c3O)cc2)cc1 [NCI-65855] | 129 | 
CC(=O)Nc1ccc(/N=N/c2ccc3cc(S(=O)(=O)O)cc(NC(C)=O)c3c2O)cc1 [NCI-73416] | 77 | 
Nc1c(/N=N/c2cc(Cl)ccc2Cl)c(S(=O)(=O)O)cc2cc(S(=O)(=O)O)c(/N=N/c3ccc(Sc4ccc(/N=N/c5ccc(O)cc5)cc4)cc3)c(O)c12 [NCI-75661] | 76 | 
Nc1ccc2cc(S(=O)(=O)O)cc(O)c2c1/N=N/c1ccc(-c2ccc(/N=N/c3c(N)ccc4cc(S(=O)(=O)O)cc(O)c34)cc2)cc1 [NCI-75778] | 171 | 
O=S(=O)(O)c1cc(O)c2c(/N=N/c3ccc(/N=N/c4c(S(=O)(=O)O)cc5cc(Nc6ccccc6)ccc5c4O)c4ccccc34)cc(S(=O)(=O)O)cc2c1 [NCI-75916] | 125 | 
Cc1nn(-c2cc(S(=O)(=O)O)ccc2Cl)c(O)c1/N=N/c1c(NC(=O)c2ccc(N)cc2)ccc2cc(S(=O)(=O)O)ccc12 [NCI-75963] | 129 | 
Nc1ccc2c(O)c(/N=N/c3ccc(-c4ccc(/N=N/c5c(S(=O)(=O)O)cc6cc(S(=O)(=O)O)c(/N=N/c7cc(Cl)ccc7Cl)c(N)c6c5O)cc4)cc3)c(S(=O)(=O)O)cc2c1 [NCI-77521] | 195 | 
Nc1ccc(/N=N/c2ccc(-c3ccc(/N=N/c4c(S(=O)(=O)O)cc5cc(S(=O)(=O)O)c(/N=N/c6ccccc6)c(O)c5c4N)cc3)cc2)c2ccc(S(=O)(=O)O)cc12 [NCI-79596] | 5 | 
Nc1c(/N=N/c2ccc(-c3ccc(/N=N/c4c(O)ccc5cc(S(=O)(=O)O)cc(S(=O)(=O)O)c45)cc3)cc2)c(S(=O)(=O)O)cc2cc(S(=O)(=O)O)c(/N=N/c3ccccc3)c(O)c12 [NCI-79741] | 23 | 
Nc1ccc2cc(S(=O)(=O)O)c(/N=N/c3ccc(-c4ccc(/N=N/c5c(S(=O)(=O)O)cc6cc(S(=O)(=O)O)c(/N=N/c7cccc([N+](=O)[O-])c7)c(N)c6c5O)cc4)cc3)c(O)c2c1 [NCI-79744] | 244 | 
O=S(=O)(O)c1cc(O)c2c(/N=C/c3ccccc3O)cc(S(=O)(=O)O)cc2c1 [NCI-88947] |  | KI [1]: in- active at 75 uM
O=S(=O)(O)c1ccccc1/N=N/c1c(S(=O)(=O)O)cc2cc(S(=O)(=O)O)c(/N=N/c3ccccc3S(=O)(=O)O)c(O)c2c1O [NCI-174066] | 234 | 
O=C(O)CC(NC(=O)CP(=O)(O)O)C(=O)O (centres unmarked) [NCI-224131] |  | Ki: > 500 µM
O=C(Nc1ccc(/C=C/c2ccc(NC(=O)c3cc(S(=O)(=O)O)c4ccncc4c3O)cc2S(=O)(=O)O)c(S(=O)(=O)O)c1)c1cc(S(=O)(=O)O)c2ccncc2c1O [NCI-665534-P] | 5 | 
Nc1ccc(/N=N/c2ccc(-c3ccc(S(=O)(=O)O)cc3)cc2)c2ccc(S(=O)(=O)O)cc12 [NCI-724225] | 81 | 
